Legend:
LPA 18:2 in rat plasma = test: Rat whole blood (plasma) LPA assay; type: biochemical; conditions: 2 h at 37 C, LPA 18:2 by LC-MS/MS
Experimental: Whole blood is collected from rats or mouse by exsanguinations on sodium heparin tube, then after centrifugation at 3000 rpm for 15 min at 4° C., plasma is stored at −80° C. Compounds are diluted in DMSO in concentration dependent manner then 0.5 μL are dispensed into 96-well plate placed in ice. Plasma is defrosted on ice then 49.5 μL of plasma are added into the well containing 0.5 μL of compound (1% DMSO final). Plates are covered with a lid in polypropylene and incubated at +37° C., 5% CO2, for 2 h under gentle shaking (except controls which are stored at −20° C.).
At the end of the incubation, controls are defrosted in ice and transferred in the incubated plates for LC-MS/MS analysis with a non GLP-validated method. For the analysis, plasma proteins from a 10 μL incubated plates are precipitated with an excess of methanol containing the internal standard, LPA 17:0. After centrifugation, the corresponding supernatant is injected on a C18 column. Analytes are eluted out of the column under isocratic conditions. An API5500 QTRAP mass spectrometer (ABSciex™) is used for the detection of LPA 18:2. No calibration curve is prepared for LPA 18:2, however relative quantities are evaluated based on the peak area.

hENPP2 = hENPP2 (UniProtKB/SwissProt Q13822) (Homo sapiens (Human), UniProt Q13822); test: hENPP2 biochemical assay, LPC as substrate; conditions: LPC (palmitoyl 16:0) as substrate
Outline: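 Human ENPP2 in 50 mM Tris-HCl pH 8.5, 500 mM NaCl, 5 mM KCl, 10 mM CaCl2, 0.1% fatty-acid-free BSA, reacted 30 min at 37 °C with LPC 16:0 (150 µM solution added 1:1). Released choline measured via choline oxidase/peroxidase/TOOS/4-aminoantipyrine quinoneimine dye at 555 nm; IC50 reported.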

Compound	IC50 (LPA 18:2 in rat plasma) [nM]	IC50 (hENPP2) [nM]
CCc1nc2cc(F)c(N3CCN(CC(=O)N4CC(O)C4)CC3)cn2c1N(C)c1nc(-c2ccc(F)cc2)cs1 [Compound 19, 2-[4-(2-Ethyl-7-fluoro-3-{[4-(4-fluoro-phenyl)-thiazol-2-yl]-methyl-amino}-imidazo[1,2-a]pyridin-6-yl)-piperazin-1-yl]-1-(3-hydroxy-azetidin-1-yl)-ethanone]	> 1000	–
CCc1nc2ccc(N3CCN(CC(=O)N4CC[C@@H](O)C4)CC3)cn2c1N(C)c1nc(-c2ccc(F)cc2)cs1 [Compound 26, (R)-2-(4-(2-ethyl-3-((4-(4-fluorophenyl)thiazol-2-yl)(methyl)amino)imidazo[1,2-a]pyridin-6-yl)piperazin-1-yl)-1-(3-hydroxypyrrolidin-1-yl)ethanone]	> 1000	100 to 500
CCc1nc2ccc(N3CCN(C(=O)C4CCN(C(C)=O)C4)CC3)cn2c1N(C)c1nc(-c2ccc(F)cc2)cs1 (centres unmarked) [Compound 48, 1-{3-[4-(2-Ethyl-3-{[4-(4-fluoro-phenyl)-thiazol-2-yl]-methyl-amino}-imidazo[1,2-a]pyridin-6-yl)-piperazine-1-carbonyl]-pyrrolidin-1-yl}-ethanone]	> 1000	> 1000
CCc1nc2ccc(C3=CCN(S(C)(=O)=O)CC3)cn2c1N(C)c1nc(-c2ccc(OC(F)(F)F)cc2)cs1 [Compound 72, N-(2-ethyl-6-(1-(methylsulfonyl)-1,2,3,6-tetrahydropyridin-4-yl)imidazo[1,2-a]pyridin-3-yl)-N-methyl-4-(4-(trifluoromethoxy)phenyl)thiazol-2-amine]	> 1000	100 to 500
CCc1nc2ccc(C3CCN(S(=O)(=O)CCCN(C)C)CC3)cn2c1N(C)c1nc(-c2ccc(F)cc2)c(CO)s1 [Compound 149, (2-((6-(1-(3-(dimethylamino)propyl-sulfonyl)piperidin-4-yl)-2-ethylimidazo[1,2-a]pyridin-3-yl)(methyl)amino)-4-(4-fluorophenyl)thiazol-5-yl)]	> 1000	100 to 500

Next, values leading:

IC50 (LPA 18:2 in rat plasma) [nM]	IC50 (hENPP2) [nM]	Compound
500 to 1000	–	CCc1nc2c(F)cc(N3CCN(CC(=O)N4CC[C@@H](O)C4)CC3)cn2c1N(C)c1nc(-c2ccc(F)cc2)cs1 [Compound 16, (R)-2-(4-(2-ethyl-8-fluoro-3-((4-(4-fluorophenyl)thiazol-2-yl)(methyl)amino)imidazo[1,2-a]pyridin-6-yl)piperazin-1-yl)-1-(3-hydroxypyrrolidin-1-yl)ethanone]
0.01 to 100	–	CCc1nc2cc(F)c(N3CCN(CC(=O)N4CC(O)C4)CC3)cn2c1N(C)c1nc(-c2ccc(F)cc2)c(C#N)s1 [Compound 18, 2-[(2-Ethyl-7-fluoro-6-{4-[2-(3-hydroxy-azetidin-1-yl)-2-oxo-ethyl]-piperazin-1-yl}-imidazo[1,2-a]pyridin-3-yl)-methyl-amino]-4-(4-fluoro-phenyl)-thiazole-5-carbonitrile]
0.01 to 100	0.01 to 100	CCc1nc2ccc(N3CCN(CC(=O)N(C)C)CC3)cn2c1N(C)c1nc(-c2ccc(F)cc2)c(C#N)s1 [Compound 140, 2-(4-(3-((5-cyano-4-(4-fluorophenyl)thiazol-2-yl)(methyl)amino)-2-ethylimidazo[1,2-a]pyridin-6-yl)piperazin-1-yl)-N,N-dimethylacetamide]
0.01 to 100	0.01 to 100	CCc1nc2ccc(C3CCN(CC(=O)N4CC[C@@H](O)C4)CC3)cn2c1N(C)c1nc(-c2ccc(F)cc2)c(C#N)s1 [Compound 142, (R)-2-((2-ethyl-6-(1-(2-(3-hydroxypyrrolidin-1-yl)-2-oxoethyl)piperidin-4-yl)imidazo[1,2-a]pyridin-3-yl)(methyl)amino)-4-(4-fluorophenyl)thiazole-5-carbonitrile]
0.01 to 100	0.01 to 100	CCc1nc2ccc(C3CCN(CC(=O)N4CC(CO)C4)CC3)cn2c1N(C)c1nc(-c2ccc(F)cc2)c(C#N)s1 [Compound 144, 2-((2-ethyl-6-(1-(2-(3-(hydroxymethyl)azetidin-1-yl)-2-oxoethyl)piperidin-4-yl)imidazo[1,2-a]pyridin-3-yl)(methyl)amino)-4-(4-fluorophenyl)thiazole-5-carbonitrile]
